Measurements: US20150031655A1, “COMBINATION OF LIVER X RECEPTOR MODULATOR AND ESTROGEN RECEPTOR MODULATOR FOR THE TREATMENT OF AGE-RELATED DISEASES” (UNIVERSITY OF NORTH DAKOTA, priority 2011, published 2015)

Assays:
α-synuclein mRNA = test: Real time RT-PCR of α-synuclein mRNA in SH-SY5Y cells; assay type: cell-based, human; details: for increase in α-synuclein mRNA expression: 24 h; for 27-OHC-induced increase in α-synuclein mRNA: co-treatment with 10 μM 27-OHC
Description: (§1) Human neuroblastoma SH-SY5Y cells were grown in DMEM/F12 medium containing 10% fetal bovine serum (FBS) and 1% antibiotic/antimycotic mix. Cells were maintained at 37° C. in a saturated humidity atmosphere containing 95% air and 5% CO2.
Total RNA was isolated and extracted from treated cells using the 5 prime “PerfectPure RNA tissue kit” (5 Prime, Inc., Gaithersburg, Md.). RNA estimation was performed using “Quant-iT RNA Assay Kit” using a Qubit fluorometer according to the manufacturer's protocol (Invitrogen, Carlsbad, Calif.). cDNA was synthesized by reverse transcribing 1 μg of extracted RNA using an “iScript cDNA synthesis kit” (BioRad, Hercules, Calif.). The oligomeric primers (Sigma, St Louis, Mo.) used to amplify the TH mRNA and α-synuclein mRNA are enumerated in Table 1. The cDNA amplification was performed using an iQ SYBR Green Supermix kit following the manufacturer's instructions (BioRad, Hercules, Calif.). The amplification was performed using an iCycler iQ Multicolor Real Time PCR Detection System (BioRad, Hercules, Calif.). The expression of specific TH and α-synuclein transcripts amplified were normalized to the expression of glyceraldehyde-3-phosphate dehydrogenase (GAPDH).

LXRβ = target: T1, LXRβ (Homo sapiens, UniProt P55055); test: ChIP, LXRβ binding to the LXRE in the α-synuclein promoter; assay type: cell-based; set-up: endogenous in cells; host or cells: SH-SY5Y human neuroblastoma cells; details: SH-SY5Y
T1 sequence (P55055 1-460): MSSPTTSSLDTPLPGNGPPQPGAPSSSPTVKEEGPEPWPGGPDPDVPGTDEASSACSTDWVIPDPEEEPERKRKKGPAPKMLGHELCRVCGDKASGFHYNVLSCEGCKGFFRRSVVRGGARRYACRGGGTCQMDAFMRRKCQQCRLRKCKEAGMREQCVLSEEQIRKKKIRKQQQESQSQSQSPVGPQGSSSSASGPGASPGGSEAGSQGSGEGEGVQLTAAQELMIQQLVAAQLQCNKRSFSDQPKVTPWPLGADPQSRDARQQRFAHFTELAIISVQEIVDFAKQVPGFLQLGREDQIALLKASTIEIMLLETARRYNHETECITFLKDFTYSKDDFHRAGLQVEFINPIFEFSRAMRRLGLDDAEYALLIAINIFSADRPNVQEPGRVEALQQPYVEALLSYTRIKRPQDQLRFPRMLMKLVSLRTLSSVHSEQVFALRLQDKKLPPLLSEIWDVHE
Description: as §1
ChIP analysis was performed to evaluate the extent of ERα/ERβ and LXRα/LXRβ binding to the DNA elements in the TH promoter and α-synuclein promoter regions respectively using “SimpleChIP™ Enzymatic Chromatic IP kit” from Cell Signaling (Boston, Mass.).
Briefly, cells from each treatment group (3×10^6 cells) were washed with PBS, trypsinized, centrifuged at 5000 g. The pellet containing the cells was further washed with PBS and cross-linked using 37% formaldehyde for 15 min followed by the addition of glycine solution to cease the cross-linking reaction.
The cells were washed with 4× volumes of 1×PBS and centrifuged at ˜220 g for 5 min. The pellet was resuspended and incubated for 10 min in 5 ml of tissue lysis buffer containing DTT and protease and phosphatase inhibitors. The subsequent steps to isolate the cross-linked chromatin were performed according to the manufacturer's protocol.
The cross-linked chromatin from each sample was apportioned into four equal parts. One quarter of the cross-linked chromatin was set aside as “input.” One quarter of the cross-linked chromatin from each sample was incubated with 5 μg of anti-ERα mouse antibody (Cell Signaling, Boston, Mass.) and 5 μg of anti-ERβ rabbit antibody (Upstate, Bedford, Mass.), or 5 μg of anti-LXRα rabbit antibody (Abcam, Cambridge, Mass.) and 5 μg of anti-LXRβ mouse antibody (Abcam, Cambridge, Mass.), while the remaining one quarter of the cross-linked chromatin from each sample was incubated with 5 μg of normal Rabbit IgG to serve as negative control.
The cross-linked chromatin samples were incubated overnight at 4° C. with their respective antibodies. The DNA-protein complexes were collected with Protein G agarose beads and washed to remove non-specific antibody binding. The DNA from the DNA-protein complexes from all the samples including the input and negative control was reverse cross-linked by incubation with 2 μL of Proteinase K for 2 hours at 65° C.
The crude DNA extract was eluted and then washed several times with wash buffer containing ethanol (provided with the kit) followed by purification with the use of DNA spin columns provided by the manufacturer. The pure DNA was eluted out of the DNA spin columns using 50 μL of the DNA elution buffer provided in the kit. 1 μL of the purified DNA was used for DNA concentration analysis using the “Quant-iT™ dsDNA Assay kit” from Invitrogen (Carlsbad, Calif.). The DNA fragment size was determined by electrophoresis on a 1.2% agarose FlashGel^R system (Lonza, Rockland, Me.).
The relative abundance of the ERα or ERβ antibody precipitated chromatin containing the ERE in the TH promoter region and LXRα or LXRβ antibody precipitated chromatin containing the LXRE in the α-synuclein promoter region was determined by qPCR using an iQ SYBR Green Supermix kit following the manufacturer's instructions (BioRad, Hercules, Calif.) and sequence specific primers (See Table 1 above). […] The fold enrichment of the ERE in the TH promoter region and LXRE in the α-synuclein promoter region was calculated using the ΔΔCt method (K. J. Livak et al., Methods, 25, 402 (2001)) which normalizes ChIP Ct values of each sample to the % input and background.

27-OHC-induced increase in LXRβ binding to the LXRE (LXRβ; co-treatment with 27-OHC)	decrease in LXRβ binding to the LXRE on the α-synuclein promoter (LXRβ; treatment alone vs control) [fold]	increase of LXRβ binding to the LXRE on the α-synuclein promoter (LXRβ; in combination with 27-OHC) [fold]	Structure (SMILES)	increase in α-synuclein mRNA expression (α-synuclein mRNA; treatment alone vs control) [fold]	increase of LXRβ binding to the LXRE in the α-synuclein promoter (LXRβ; treatment alone vs control) [fold]	27-OHC-induced increase in α-synuclein mRNA (α-synuclein mRNA)	α-synuclein mRNA levels (α-synuclein mRNA; treatment alone vs control)
			C[C@@H](CO)CCC[C@@H](C)[C@H]1CC[C@H]2[C@@H]3CC=C4C[C@@H](O)CC[C@]4(C)[C@H]3CC[C@]12C [27-OHC, 27-hydroxycholesterol]	9	~3		
significantly reversed	~2.8		CC(C)CCC[C@@H](C)[C@H]1CC[C@H]2[C@@H]3C[C@@H]4O[C@@]45C[C@@H](OS(=O)(=O)O)CC[C@]5(C)[C@H]3CC[C@]12C [ECHS, 5α,6α-epoxycholesterol-3-sulfate]			marked attenuation	no effect
		4	Cl.O=C(O)Cc1cccc(OCCCN(Cc2cccc(C(F)(F)F)c2Cl)CC(c2ccccc2)c2ccccc2)c1 [GW3965, 3-[3-[N-(2-Chloro-3-trifluoromethylbenzyl)-(2,2-diphenylethyl)amino]propyloxy]phenylacetic acid hydrochloride]	10	3.5	not mRNA levels	
